# Earlier results in patent publication US11492588B2, “Lactococcus lactis subsp. lactis CCFM1018 and application thereof in preparation of food and medicine for excreting plasticizer” (priority 2018, dated 2022).
# Conditions: human body
structure (smiles),measurement,setting,value
"CCCCC(CC)COC(=O)c1ccccc1C(=O)OCC(CC)CCCC (stereo not shown) [DEHP, di(2-ethylhexyl) phthalate]",Absorption and distribution period,,4 to 8 h
same,Time within which most of the DEHP is completely metabolized,,≤ 24 h
same,Share converted into five secondary metabolites and excreted in urine,24 h after entry,about 67%
same,Share directly excreted in urine,24 h after entry,less than 10%
